{"source": "patent US20250230193A1", "about": "“CYCLIC COMPOUND HAVING SELECTIVE KRAS INHIBITORY EFFECT ON HRAS AND NRAS” (CHUGAI SEIYAKU KABUSHIKI KAISHA, priority 2022, published 2025)", "key": {"[1]": {"target": "GDP-bound NRAS wild-type protein (Homo sapiens, UniProt P01111)", "sequence (P01111 whole entry)": "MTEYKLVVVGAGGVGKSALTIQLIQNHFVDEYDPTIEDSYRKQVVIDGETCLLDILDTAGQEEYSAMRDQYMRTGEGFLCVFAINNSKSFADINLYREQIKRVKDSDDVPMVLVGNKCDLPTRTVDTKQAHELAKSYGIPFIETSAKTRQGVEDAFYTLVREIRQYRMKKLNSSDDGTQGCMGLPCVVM", "experiment": "Binding to NRAS by surface plasmon resonance (SPR), Single Cycle Kinetics"}, "[2]": {"target": "GDP-bound HRAS wild-type protein (Homo sapiens, UniProt P01112)", "sequence (P01112 whole entry)": "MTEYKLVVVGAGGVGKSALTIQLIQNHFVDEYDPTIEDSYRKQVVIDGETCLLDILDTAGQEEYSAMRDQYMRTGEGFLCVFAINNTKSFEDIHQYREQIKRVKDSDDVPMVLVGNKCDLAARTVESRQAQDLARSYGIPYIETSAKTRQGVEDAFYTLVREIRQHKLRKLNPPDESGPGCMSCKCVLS", "experiment": "Binding to HRAS by surface plasmon resonance (SPR), Single Cycle Kinetics"}, "[3]": {"conditions": "SPR, GDP-bound NRAS wild-type vs GDP-bound KRAS wild-type"}, "[4]": {"conditions": "SPR, GDP-bound HRAS wild-type vs GDP-bound KRAS wild-type"}}, "note": "Where a SMILES comes first, the peptide text is derived from it. Bridges are numbered along the chain shown (N, C = ends). [ ]: non-standard residue; d: D form. The star is where a group is joined. hPhe(3-Cl-4-CF3) = N[C@@H](CCc1ccc(C(F)(F)F)c(Cl)c1)C(=O)O; NPrPhe(4-CF3) = CCCN[C@@H](Cc1ccc(C(F)(F)F)cc1)C(=O)O; NMeGly(cPent) = CN[C@H](C(=O)O)C1CCCC1; Pro(4,4-F2) = O=C(O)[C@@H]1CC(F)(F)CN1; NMeD = CN[C@@H](CC(=O)O)C(=O)O; NMeL = CN[C@@H](CC(C)C)C(=O)O; NMeAbu = CC[C@H](NC)C(=O)O; Morpholide = C1CN(*)CCO1; NMeA = CN[C@@H](C)C(=O)O; Ac5c = NC1(C(=O)O)CCCC1; Aze = O=C(O)[C@@H]1CCN1; Ac4c = NC1(C(=O)O)CCC1; Sar = CNCC(=O)O"}
{"compound": "CC[C@H](C)[C@@H]1NC(=O)[C@H](C(C)C)N(C)C(=O)C[C@@H](C(=O)N(C)C)N(C)C(=O)[C@H](C2CCCC2)N(C)C(=O)C2(CC(C)(C)C2)NC(=O)[C@@H]2C[C@H](C)CN2C(=O)[C@H](CCc2ccc(C(F)(F)F)c(OC)c2)NC(=O)CN(C)C(=O)[C@H](Cc2ccc(C(F)(F)F)cc2)N2CC/C=C\\C[C@@H](C2=O)N(C)C(=O)CN(C)C1=O", "note": "[PP2005]", "values": [{"measurement": "NRAS/KRAS (ratio of KD value for NRAS to KD value for KRAS)", "setting": "[1]; KD ratio, GDP-bound NRAS wild-type vs GDP-bound KRAS wild-type, SPR", "result": "A (a compound having 10 or more and less than 20 is denoted as A)"}, {"measurement": "HRAS/KRAS (ratio of KD value for HRAS to KD value for KRAS)", "setting": "[2]; KD ratio, GDP-bound HRAS wild-type vs GDP-bound KRAS wild-type, SPR", "result": "A (a compound having 10 or more and less than 20 is denoted as A)"}]}
{"compound": "CCCN1C(=O)[C@@H]2CCN2C(=O)CN(C)C(=O)[C@H]([C@@H](C)CC)NC(=O)[C@H](CC(C)C)N(C)C(=O)C[C@@H](C(=O)N(C)C)NC(=O)[C@H](C2CCCC2)N(C)C(=O)C2(CCC2)NC(=O)[C@@H]2CC(F)(F)CN2C(=O)[C@H](CCc2ccc(C(F)(F)F)c(Cl)c2)NC(=O)CN(C)C(=O)[C@@H]1Cc1ccc(C(F)(F)F)cc1", "note": "[PP0388] ([NMeL]I[Sar][Aze][NPrPhe(4-CF3)][Sar][hPhe(3-Cl-4-CF3)][Pro(4,4-F2)][Ac4c][NMeGly(cPent)]D-NMe2; lactam N-11)", "values": [{"measurement": "NRAS/KRAS (ratio of KD for GDP-bound NRAS wild-type to KD for KRAS)", "setting": "[1]; SPR", "result": "C (A compound having a KD ratio of 0.1 or more and less than 3 is denoted as C)"}, {"measurement": "HRAS/KRAS (ratio of KD for GDP-bound HRAS wild-type to KD for KRAS)", "setting": "[2]; SPR", "result": "B (a compound having 3 or more and less than 10 is denoted as B)"}]}
{"compound": "CCO[C@@H]1C[C@H]2C(=O)NC3(CC(C)(C)C3)C(=O)N(C)[C@@H](CC(C)(C)C)C(=O)N(C)[C@H](C(=O)N(C)C)CC(=O)N(C)[C@@H](COC)C(=O)N[C@@H]([C@@H](C)CC)C(=O)N(C3CC3)CC(=O)N(C)[C@H]3C/C=C\\CCN(C3=O)[C@@H](Cc3ccc(C(F)(F)F)cc3)C(=O)N(C)CC(=O)N[C@@H](CCc3ccc(Cl)c(Cl)c3)C(=O)N2C1", "note": "[PP2750]", "values": [{"measurement": "NRAS/KRAS (ratio of KD value with respect to GDP-bound NRAS wild-type protein to KD value with respect to KRAS)", "setting": "[1]; class symbols", "result": "AA (a compound having 20 or more is denoted as AA)"}, {"measurement": "HRAS/KRAS (ratio of KD value with respect to GDP-bound HRAS wild-type protein to KD value with respect to KRAS)", "setting": "[2]; class symbols", "result": "A (a compound having 10 or more and less than 20 is denoted as A)"}]}
{"compound": "CCCN1C(=O)[C@@H]2CCN2C(=O)[C@H](C)N(C)C(=O)[C@H]([C@@H](C)CC)NC(=O)[C@H](CC)N(C)C(=O)C[C@@H](C(=O)N2CCOCC2)N(C)C(=O)[C@H](C2CCCC2)N(C)C(=O)C2(CCCC2)NC(=O)[C@@H]2CC(F)(F)CN2C(=O)[C@H](CCc2ccc(C(F)(F)F)c(Cl)c2)NC(=O)CN(C)C(=O)[C@@H]1Cc1ccc(C(F)(F)F)cc1", "note": "[PP0206] ([NMeAbu]I[NMeA][Aze][NPrPhe(4-CF3)][Sar][hPhe(3-Cl-4-CF3)][Pro(4,4-F2)][Ac5c][NMeGly(cPent)][NMeD]-Morpholide; lactam N-11)", "values": [{"measurement": "NRAS/KRAS (ratio of KD for GDP-bound NRAS wild-type to KD for KRAS)", "setting": "[1]; SPR", "result": "C (A compound having a KD ratio of 0.1 or more and less than 3 is denoted as C)"}, {"measurement": "HRAS/KRAS (ratio of KD for GDP-bound HRAS wild-type to KD for KRAS)", "setting": "[2]; SPR", "result": "B (a compound having 3 or more and less than 10 is denoted as B)"}]}
{"compound": "CCO[C@@H]1C[C@H]2C(=O)NC3(CC(C)(C)C3)C(=O)N(C)[C@@H](C(CC)CC)C(=O)N(C)[C@H](C(=O)N3CCCC3)CC(=O)N(C)[C@@H](C)C(=O)N[C@@H]([C@@H](C)CC)C(=O)N(C)CC(=O)N(C)[C@H]3C/C=C\\CCN(C3=O)[C@@H](Cc3ccc(C)cc3)C(=O)N(C)CC(=O)N[C@@H](CCc3cc(F)c(C(F)(F)F)c(F)c3)C(=O)N2C1", "note": "[PP2145]", "values": [{"measurement": "NRAS/KRAS (ratio of KD value with respect to NRAS to KD value with respect to KRAS)", "setting": "[1]; [3]", "result": "A (a compound having 10 or more and less than 20 is denoted as A)"}, {"measurement": "HRAS/KRAS (ratio of KD value with respect to HRAS to KD value with respect to KRAS)", "setting": "[2]; [4]", "result": "A (a compound having 10 or more and less than 20 is denoted as A)"}]}
{"compound": "CCC[C@H]1C(=O)N[C@@H]([C@@H](C)CC)C(=O)N(C)CC(=O)N(C)[C@H]2C/C=C\\CCN(C2=O)[C@@H](Cc2ccc(C(F)(F)F)cc2)C(=O)N(C)CC(=O)N[C@@H](CCc2cc(F)c(C(F)(F)F)c(F)c2)C(=O)N2C[C@H](OCC)C[C@H]2C(=O)NC2(CC(C)(C)C2)C(=O)N(C)[C@@H](CC2CC2)C(=O)N(C)[C@H](C(=O)N(C)C)CC(=O)N1C", "note": "[PP2807]", "values": [{"measurement": "NRAS/KRAS (ratio of KD value with respect to GDP-bound NRAS wild-type protein to KD value with respect to KRAS)", "setting": "[1]; class symbols", "result": "AA (a compound having 20 or more is denoted as AA)"}, {"measurement": "HRAS/KRAS (ratio of KD value with respect to GDP-bound HRAS wild-type protein to KD value with respect to KRAS)", "setting": "[2]; class symbols", "result": "A (a compound having 10 or more and less than 20 is denoted as A)"}]}
{"compound": "CCOC[C@H]1C(=O)N[C@@H]([C@@H](C)CC)C(=O)N(C)CC(=O)N(C)[C@H]2C/C=C\\CCN(C2=O)[C@@H](Cc2ccc(C)cc2)C(=O)N(C)CC(=O)N[C@@H](CCc2ccc(C(F)(F)F)c(OC)c2)C(=O)N2C[C@@H](C)C[C@H]2C(=O)NC2(CC(C)(C)C2)C(=O)N(C)[C@@H](C2CCCC2)C(=O)N(C)[C@H](C(=O)N(C)C)CC(=O)N1C", "note": "[PP2505]", "values": [{"measurement": "NRAS/KRAS (ratio of KD value with respect to NRAS to KD value with respect to KRAS)", "setting": "[1]; [3]", "result": "A (a compound having 10 or more and less than 20 is denoted as A)"}, {"measurement": "HRAS/KRAS (ratio of KD value with respect to HRAS to KD value with respect to KRAS)", "setting": "[2]; [4]", "result": "B (a compound having 3 or more and less than 10 is denoted as B)"}]}
{"compound": "CCO[C@@H]1C[C@H]2C(=O)NC3(CCC3)C(=O)N(C)[C@@H](C3CCCC3)C(=O)N(CCC3CCC3)[C@H](C(=O)N3CCOCC3)CC(=O)N(C)[C@@H](CC(C)C)C(=O)N[C@@H]([C@@H](C)CC)C(=O)N(C)CC(=O)N(C)[C@H]3CCCCN(C3=O)[C@@H](Cc3ccc(C(F)(F)F)cc3)C(=O)N(C)CC(=O)N[C@@H](CCc3cc(F)c(C(F)(F)F)c(F)c3)C(=O)N2C1", "note": "[PP0650]", "values": [{"measurement": "NRAS/KRAS (ratio of KD value with respect to GDP-bound NRAS wild-type protein to KD value with respect to KRAS)", "setting": "[1]; SPR", "result": "C (A compound having a KD ratio of 0.1 or more and less than 3 is denoted as C)"}, {"measurement": "HRAS/KRAS (ratio of KD value with respect to GDP-bound HRAS wild-type protein to KD value with respect to KRAS)", "setting": "[2]; SPR", "result": "B (a compound having 3 or more and less than 10 is denoted as B)"}]}
